System: not given
Assay: not given
Settings: not given

Compound	melting point
CCn1c(N)c(C(=O)NCCN2CCOCC2)c(=O)c2ccc(-c3ccc(NC(=O)NCc4cccnc4)cc3)nc21 [No. 30, 2-Amino-1-ethyl-4-oxo-7-[4-(3-pyridin-3-ylmethylureido)phenyl]-1,4-dihydro[1,8]naphthyridine-3-carboxylic acid (2-morpholin-4-ylethyl)amide]	245 °C

System: HCT116 tumour line (ref. ATCC-CCL247)
Assay: MTS proliferation and cell viability test on the HCT116 tumour line
Type: cell-based
Settings: Homo sapiens, HCT-116, incubation of the tested compound for 72 h, 50% loss of proliferation and of cell viability
Method: The proliferation and the cell viability were determined in a test using 3-(4,5-dimethylthiazol-2-yl)-5-(3-carboxymethoxyphenyl)-2-(4-sulfophenyl)-2H-tetrazolium (MTS) according to Fujishita T. et al. Oncology 2003, 64(4), 399-406 (see page 401). In this test, the mitochondrial capacity of the living cells for converting the MTS into a coloured compound, after incubation of the tested compound for 72 h, is measured. IC50 (nM) denotes the concentration of compound which results in a 50% loss of proliferation and of cell viability.
The compounds of Table I were the subject of in vitro experimental tests on the HCT116 tumour line (ref. ATCC-CCL247).

Compound	IC50
CCn1c(N)c(C(=O)NC)c(=O)c2ccc(-c3ccc(NC(=O)NCc4cccnc4)cc3)nc21 [No. 1, 2-Amino-1-ethyl-4-oxo-7-[4-(3-pyridin-3-ylmethylureido)phenyl]-1,4-dihydro[1,8]naphthyridine-3-carboxylic acid methylamide]	200 to 500 pM
CCn1c(N)c(C(=O)NC)c(=O)c2ccc(-c3ccc(NC(=O)/C=C/c4cccnc4)cc3)nc21 [No. 7, 2-Amino-1-ethyl-4-oxo-7-[4-((E)-3-pyridin-3-yl-acryloylamino)phenyl]-1,4-dihydro[1,8]naphthyridine-3-carboxylic acid methylamide]	2000 pM
CCOC(=O)c1c(N)n(CC)c2nc(-c3ccc(NC(=O)NCc4cccnc4)cc3)ccc2c1=O [No. 10, 2-Amino-1-ethyl-4-oxo-7-[4-(3-pyridin-3-ylmethylureido)phenyl]-1,4-dihydro[1,8]naphthyridine-3-carboxylic acid ethyl ester]	< 1000 pM
CCn1c(N)c(C(=O)O)c(=O)c2ccc(-c3ccc(NC(=O)NCc4cccnc4)cc3)nc21 [No. 13, 2-Amino-1-ethyl-4-oxo-7-[4-(3-pyridin-3-ylmethylureido)phenyl]-1,4-dihydro[1,8]naphthyridine-3-carboxylic acid]	6000 pM
CCn1c(N)c(C(=O)NC)c(=O)c2ccc(-c3ccc(NC(=O)NCc4cccnc4)cc3)cc21 [No. 27, 2-Amino-1-ethyl-4-oxo-7-[4-(3-pyridin-3-ylmethylureido)phenyl]-1,4-dihydroquinoline-3-carboxylic acid methylamide]	100 pM
CCn1c(N)c(C(=O)NCCN2CCOCC2)c(=O)c2ccc(-c3ccc(NC(=O)NCc4cccnc4)cc3)nc21 [No. 30, 2-Amino-1-ethyl-4-oxo-7-[4-(3-pyridin-3-ylmethylureido)phenyl]-1,4-dihydro[1,8]naphthyridine-3-carboxylic acid (2-morpholin-4-ylethyl)amide]	100 pM
CCn1c(NCCN2CCN(C)CC2)c(C(=O)NCCN2CCN(C)CC2)c(=O)c2ccc(-c3ccc(NC(=O)NCc4cccnc4)cc3)nc21 [No. 46, 1-Ethyl-2-[2-(4-methyl-piperazin-1-yl)-ethylamino]-4-oxo-7-[4-(3-pyridin-3-ylmethylureido)phenyl]-1,4-dihydro[1,8]naphthyridine-3-carboxylic acid [2-(4-methylpiperazin-1-yl)ethyl]amide]	1900 pM
CCn1c(N)c(C(=O)NC)c(=O)c2cnc(-c3ccc(NC(=O)NCc4cccnc4)cc3)nc21 [No. 53, 7-Amino-8-ethyl-5-oxo-2-[4-(3-pyridin-3-ylmethylureido)phenyl]-5,8-dihydro-pyrido[2,3-d]pyrimidine-6-carboxylic acid methylamide]	6000 pM
CCn1c(N)c(C(N)=O)c(=O)c2ccc(-c3ccc(NC(=O)NCc4cccnc4)cc3)cc21 [No. 56, 2-Amino-1-ethyl-4-oxo-7-[4-(3-pyridin-3-ylmethylureido)phenyl]-1,4-dihydroquinoline-3-carboxylic acid amide]	190 pM
CCn1c(NCCN2CCCC2C)c(C(=O)NCCN2CCCC2C)c(=O)c2ccc(-c3ccc(NC(=O)NCc4cccnc4)cc3)nc21 (centres unmarked) [No. 57, 1-Ethyl-2-[2-(2-methyl-pyrrolidin-1-yl)-ethylamino]-4-oxo-7-[4-(3-pyridin-3-ylmethylureido)phenyl]-1,4-dihydro[1,8]naphthyridine-3-carboxylic acid [2-(2-methylpyrrolidin-1-yl)ethyl]amide]	260 pM
CCn1c(NCC2CCCO2)c(C(=O)NCC2CCCO2)c(=O)c2ccc(-c3ccc(NC(=O)NCc4cccnc4)cc3)cc21 (centres unmarked) [No. 59, 1-Ethyl-4-oxo-7-[4-(3-pyridin-3-ylmethylureido)phenyl]-2-[(tetrahydrofuran-2-ylmethyl)amino]-1,4-dihydroquinoline-3-carboxylic acid (tetrahydrofuran-2-ylmethyl)amide]	470 pM
CCn1c(NCCN(C(C)C)C(C)C)c(C(=O)NCCN(C(C)C)C(C)C)c(=O)c2ccc(-c3ccc(NC(=O)NCc4cccnc4)cc3)cc21 [No. 60, 2-(2-Diisopropylaminoethylamino)-1-ethyl-4-oxo-7-[4-(3-pyridin-3-ylmethylureido)phenyl]-1,4-dihydroquinoline-3-carboxylic acid (2-diisopropylaminoethyl)amide]	100 pM
CCn1c(NCCN2CCCC2)c(C(=O)NCCN2CCCC2)c(=O)c2ccc(-c3ccc(NC(=O)NCc4cccnc4)cc3)cc21 [No. 61, 1-Ethyl-4-oxo-7-[4-(3-pyridin-3-ylmethylureido)phenyl]-2-(2-pyrrolidin-1-ylethylamino)-1,4-dihydroquinoline-3-carboxylic acid (2-pyrrolidin-1-ylethyl)amide]	100 pM
